Patent US20050019268A1, “Spray containing ubiquinone Qn” (MSE Pharmazeutika GmbH, priority 1999, published 2005)

Tested on: migraine and tension headaches
Assay: treatment of pain from migraine and tension headaches with Q-10 (oral capsules vs nasal formulation)
Type: in vivo
Conditions: oral administration of from 600 to 800 mg of Q-10 in the form of capsules
Description: The spray according to the invention is preferably an oral or nasal spray, so that the administration of ubiquinone Qn or ubiquinone Qn precursors can be effected on an inhalative or intranasal route. The spray according to the invention is useful, in particular, for the treatment of pain conditions as encountered in migraine and neuropathy, in neural disorders, such as depressions, psychoses, lack of concentration, and in neurodegenerative diseases, such as Alzheimer's, Parkinson's, Huntington's, multiple sclerosis and cerebral paresis. The application as an oral or nasal spray seems to accelerate the transport of ubiquinone Qn or its precursors through the blood-brain barrier. […] In principle, however, doses of as high as 1000 mg can be employed.

COC1=C(OC)C(=O)C(C/C=C(\C)CC/C=C(\C)CC/C=C(\C)CC/C=C(\C)CC/C=C(\C)CC/C=C(\C)CC/C=C(\C)CC/C=C(\C)CC/C=C(\C)CCC=C(C)C)=C(C)C1=O [Q-10, 2,3-dimethoxy-5-methyl-6-deca-prenyl-1,4-benzoquinone]
effect on migraine: virtually no effect
